“Also recorded” adds a separate entry of the source.
Columns and labels:
sensory panel [1] = experiment: Sensory (triangle) tests: kokumi intensity in chicken broth; assay type: in vivo; settings: for Kokumi intensity (0-5): pH 6.5, scale 0-5 (blank = 2); for Sensory descriptors: pH 6.5; for kokumi effect (in words): Table 10
Method: (§1) Unless otherwise indicated, all sensory tests for the samples are determined using triangle tests (Wieser and Belitz, Z. Lebensm. Unters. Forsch., 1975, 159, 65-72) in three different sessions. The sensory panel is trained to evaluate aqueous solutions (2 mL each) of the following reference taste compounds dissolved in bottled water with a pH of 6.0: sucrose (25 mmol/L) for sweet taste; lactic acid (20 mmol/L) for sour taste; NaCl (30 mmol/L) for salty taste; caffeine (1 mmol/L) for bitter taste; and MSG (3 mmol/L) for umami taste, tannic acid (0.05%) for puckering astringency, and quercetin-O-β-D-glucopyranoside (0.01 mmol/L) for a velvety astringent, mouth-drying oral sensation. For the training of viscosity, a gelatin solution (0.5% in water) was used. […] Sensory analyses were performed in a sensory panel room at 19-22° C. in three different sessions using nose clamps.
(§2) For recording the taste profiles, samples are prepared as indicated in the examples below. Flavor profiles of samples are determined in a triangle test in three different sessions. Panelists refrain from eating or drinking for at least 1 hour prior to the session. At the start of the session and before each trial, the subjects rinsed with water and expectorated. The participants receive a set of two blanks and one taste sample. Liquids are swirled around in the mouth briefly and expectorated. […] Each sample with additive is compared to two reference samples without additives. Kokumi intensity is rated according to a scale from 0 to 5 (with 5 being the most intensive). Punch refers to an initial kokumi sensation experienced in the mouth within 0-3 seconds from the time when a food or liquid is put in the mouth, while long-lasting refers to kokumi felt after 10-60 seconds therefrom.
Sensory (triangle) tests are performed by dilution of 3 grams of chicken broth concentrate (Gourmet Bouillon Huhn; Maggi, Singen, Germany) with 100 mL water (Evian®). Additives are added as specified in table below. The pH-value of all samples is adjusted to 6.5 using formic acid (0.1 mol/L) or sodium hydroxide (0.1 mol/L). […] For each sample, kokumi intensity is rated and panelists were asked to describe sensory characteristics.

sensory panel [2] = experiment: Sensory (triangle) tests of the compounds in water; assay type: in vivo; settings: for Sensory descriptors / Intensity (0-5): additive 10 mmol/L; for Sensory descriptors: pH 6.5; for Intensity (0-5): pH 6.5, aroma and taste intensity, scale 0-5; for kokumi sensation (in words): without inducing or glutamate-containing composition
Method: as §1, §2
Sensory (triangle) tests are performed by dissolving the listed compounds in water (Evian®). Additives are added as specified in table below. The pH-value of all samples is adjusted to 6.5 using formic acid (0.1 mol/L) or sodium hydroxide (0.1 mol/L). For each sample, aroma and taste intensity is rated and panelists are asked to describe sensory characteristics.

Molecule | Kokumi intensity (0-5) (sensory panel [1]; additive 10 mmol/L) | Sensory descriptors (sensory panel [2]) | Intensity (0-5) (sensory panel [2]) | further results
C/C=C/[S+]([O-])C[C@H](N)C(=O)O (mixture of isomers) [(E)-S-1-propenyl-L-cysteine-(±)-SO] | 2.2 | onion aroma | 0 | 
C/C=C\[S+]([O-])C[C@H](N)C(=O)O (mixture of isomers) [(Z)-S-1-propenyl-L-cysteine-(±)-SO] | 2.2 | tongue covering, pungent | 1 | 
C=CC[S+]([O-])C[C@H](NC(=O)CC[C@H](N)C(=O)O)C(=O)NCC(=O)O (mixture of isomers) [S-allyl-GSH-(±)-SO, S-allyl-γ-L-Glu-L-Cys-(±)-SO-Gly] | 2.8 | flavourless | 0 | 
C=CC[S@+]([O-])C[C@H](N)C(=O)O (racemic) [S-allyl-L-cysteine-(±)-SO] | 2.4 |  | 1 | 
CC[S+]([O-])C[C@H](NC(=O)CC[C@H](N)C(=O)O)C(=O)NCC(=O)O (mixture of isomers) [S-ethyl-GSH-(±)-SO, S-ethyl-γ-L-Glu-L-Cys-(±)-SO-Gly] | 2 | flavourless | 0 | Sensory descriptors (sensory panel [1]; additive 10 mmol/L): same intensity as blank
C[S+]([O-])C[C@H](NC(=O)CC[C@H](N)C(=O)O)C(=O)NCC(=O)O (mixture of isomers) [S-methyl-GSH-(±)-SO, S-methyl-γ-L-Glu-L-Cys-(±)-SO-Gly] | 2 | flavourless | 0 | Sensory descriptors (sensory panel [1]; additive 10 mmol/L): same intensity as blank
CCC[S+]([O-])C[C@H](NC(=O)CC[C@H](N)C(=O)O)C(=O)NCC(=O)O (mixture of isomers) [S-propyl-GSH-(±)-SO, S-propyl-γ-L-Glu-L-Cys-(±)-SO-Gly] | 2 | flavourless | 0 | Sensory descriptors (sensory panel [1]; additive 10 mmol/L): same intensity as blank
C/C=C/[S+]([O-])C[C@H](NC(=O)CC[C@H](N)C(=O)O)C(=O)O (mixture of isomers) [γ-L-glutamyl-(E)-S-1-propenyl-L-cysteine-(±)-SO] | 2.5 | onion aroma | 0.5 | 
C=CC[S+]([O-])C[C@H](NC(=O)CC[C@H](N)C(=O)O)C(=O)O (mixture of isomers) [γ-L-glutamyl-S-allyl-L-cysteine-(±)-SO] | 2.5 | burning | 0.5 | 
CC[S+]([O-])C[C@H](NC(=O)CC[C@H](N)C(=O)O)C(=O)O (mixture of isomers) [γ-L-glutamyl-S-ethyl-L-cysteine-(±)-SO] | 2.2 | flavourless | 0 | 
C[S+]([O-])C[C@H](NC(=O)CC[C@H](N)C(=O)O)C(=O)O (mixture of isomers) [γ-L-glutamyl-S-methyl-L-cysteine-(±)-SO] | 2.5 | flavourless | 0 | 
CCC[S+]([O-])C[C@H](NC(=O)CC[C@H](N)C(=O)O)C(=O)O (mixture of isomers) [γ-L-glutamyl-S-propyl-L-cysteine-(±)-SO] | 2.1 | flavourless | 0 | 
C/C=C/SC[C@H](N)C(=O)O [(E)-S-1-propenyl-L-cysteine] | 2.5 | fresh onion aroma | 1 | 
C/C=C\SC[C@H](N)C(=O)O [(Z)-S-1-propenyl-L-cysteine] | 3.1 |  | 1 | Kokumi intensity (0-5) (sensory panel [1]; additive 5 mmol/L): 3.1
N[C@@H](CCC(=O)N[C@@H](CS)C(=O)NCC(=O)O)C(=O)O [GSH, glutathione, reference compound] | 3.5 |  |  | 
N[C@@H](CCC(=O)O)C(=O)[O-].[Na+] [MSG, mono sodium glutamate, reference compound] | 2 |  |  | kokumi effect (in words) (sensory panel [1]): no kokumi effect; Sensory descriptors (sensory panel [1]; additive 10 mmol/L): higher umami intensity; also recorded: increased umami; kokumi sensation (in words) (sensory panel [2]): no kokumi effect
C/C=C/SC[C@H](NC(=O)CC[C@H](NCC(=O)[C@@H](O)[C@H](O)[C@H](O)CO)C(=O)O)C(=O)O [N-(1-Deoxy-D-fructos-1-yl)-γ-L-glutamyl-(E)-S-1-propenyl-L-cysteine] |  |  |  | Kokumi intensity (0-5) (sensory panel [1]; additive 4 mmol/L): 3.3

Molecule | Kokumi intensity (0-5) (sensory panel [1]; additive 10 mmol/L) | Sensory descriptors (sensory panel [2]) | Intensity (0-5) (sensory panel [2]) | further results
[Cl-].[Na+] [NaCl, sodium chloride, reference compound] |  |  |  | kokumi effect (in words) (sensory panel [1]): no kokumi effect; Sensory descriptors (sensory panel [1]; additive 30 mmol/L): more salty than the negative control; also recorded: increased salty taste; Kokumi intensity (0-5) (sensory panel [1]; additive 30 mmol/L): 2; kokumi sensation (in words) (sensory panel [2]): no kokumi effect
C=CCSC[C@H](NC(=O)CC[C@H](N)C(=O)O)C(=O)NCC(=O)O [S-allyl-GSH, S-allyl-γ-L-Glu-L-Cys-Gly] | 3.2 |  | 0 | 
CCSC[C@H](NC(=O)CC[C@H](N)C(=O)O)C(=O)NCC(=O)O [S-ethyl-GSH, S-ethyl-γ-L-Glu-L-Cys-Gly] | 2.3 |  | 0 | 
CCSC[C@H](N)C(=O)O [S-ethyl-L-cysteine] | 2.7 |  | 1 | 
CSC[C@H](N)C(=O)O [S-methyl-L-cysteine] | 2.4 | flavourless | 0 | 
CSC[C@H](NC(=O)CC[C@H](N)C(=O)O)C(=O)NCC(=O)O [S-methyl-glutathione] | 2.8 |  | 0 | 
CCCSC[C@H](NC(=O)CC[C@H](N)C(=O)O)C(=O)NCC(=O)O [S-propyl-GSH, S-propyl-γ-L-Glu-L-Cys-Gly] | 2.1 | flavourless | 0 | 
CCCSC[C@H](N)C(=O)O [S-propyl-L-cysteine] | 3.5 |  | 2 | Kokumi intensity (0-5) (sensory panel [1]; additive 5 mmol/L): 3.5
C=CCSC[C@H](NC(=O)CC[C@H](N)C(=O)O)C(=O)O [γ-L-glutamyl-S-allyl-L-cysteine] | 3.7 |  | 1 | 
CCSC[C@H](NC(=O)CC[C@H](N)C(=O)O)C(=O)O [γ-L-glutamyl-S-ethyl-L-cysteine] | 3.1 | tongue covering | 0.5 | 
CSC[C@H](NC(=O)CC[C@H](N)C(=O)O)C(=O)O [γ-L-glutamyl-S-methyl-L-cysteine] | 3.5 | flavourless | 0 | 
CCCSC[C@H](NC(=O)CC[C@H](N)C(=O)O)C(=O)O [γ-L-glutamyl-S-propyl-L-cysteine] | 2.8 | tongue covering | 0.5 | 
S-allyl-L-cysteine-(+)-SO [Alliin] | 2.5 |  |  | 
S-ethyl-L-cysteine-(±)-SO | 2.1 |  | 1 | 
S-methyl-L-cysteine-(±)-SO | 2.1 | flavourless | 0 | 
S-propyl-L-cysteine-(±)-SO | 2.3 |  | 1 | Kokumi intensity (0-5) (sensory panel [1]; additive 5 mmol/L): 2.3

Source: patent US8524302B2, “Natural flavour enhancers and methods for making same” (Pepsico, priority 2009, dated 2013)
